Structures can show the parent of a compound that is named as a salt.

Series [1] concerns APP/PS1 mice. Nature of the series: Morris water maze (MWM) test in APP/PS1 mice. Type of series: in vivo, mouse. To be noted: AMI for four months, vs control group, FIG. 26. How it is done: More specifically, wild type mice, APP/PS1/ASM^+/− mice, ASM^+/− mice and APP/PS1 mice were used. The mice were given four trials per day for 10 days to learn the task, and on day 11, the mice were given a probe trial in which the platform was removed. The escape latency during the test period and the time spent in the target platform on day 11 were measured. The results are illustrated in FIG. 7 and FIG. 8.
MWM (Morris water maze) experiments were performed in a conventional manner to identify potential effects on learning and memory. Briefly, for the MWM test, mouse were learned the task four times a day for 10 days, followed by the removal of the platform on the 11th day and subsequently a probe trial performed.
MWM (Morris water maze) experiments were performed in a conventional manner to identify potential effects on learning and memory. Briefly, for the MWM test, mice were learned the task four times a day for 10 days, followed by the removal of the platform on the 11th day and subsequently a probe trial performed.

The target in series [2] is T1, ASM (Mus musculus, UniProt Q04519).
T1 construct: from tissue; host or cells: mouse serum/plasma and brain tissue (APP/PS1, RSD-stressed C57BL/6, FUS R521C mice)
T1 sequence (Q04519 45-627): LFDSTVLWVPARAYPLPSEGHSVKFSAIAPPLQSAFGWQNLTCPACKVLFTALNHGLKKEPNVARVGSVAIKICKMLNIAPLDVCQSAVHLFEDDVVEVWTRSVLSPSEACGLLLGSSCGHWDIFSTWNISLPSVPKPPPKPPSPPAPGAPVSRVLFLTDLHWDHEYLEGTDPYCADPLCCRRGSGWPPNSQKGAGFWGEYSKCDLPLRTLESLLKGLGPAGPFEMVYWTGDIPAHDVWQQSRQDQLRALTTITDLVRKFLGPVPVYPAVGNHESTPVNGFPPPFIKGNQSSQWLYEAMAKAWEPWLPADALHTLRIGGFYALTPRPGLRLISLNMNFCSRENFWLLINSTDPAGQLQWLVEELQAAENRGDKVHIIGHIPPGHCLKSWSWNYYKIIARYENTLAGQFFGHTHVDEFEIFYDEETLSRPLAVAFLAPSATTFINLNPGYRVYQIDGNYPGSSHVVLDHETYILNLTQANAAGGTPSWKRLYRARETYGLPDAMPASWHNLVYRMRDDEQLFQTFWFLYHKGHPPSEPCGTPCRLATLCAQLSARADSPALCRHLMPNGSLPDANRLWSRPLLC
Nature of the series: ASM activity / concentration level in serum (plasma) and brain tissue of APP/PS1 mice (UPLC). Type of series: in vivo. As to conditions: APP/PS1 mice, AMI administered for four months, nine month old; FIG. 24.
Experimental: More specifically, 3 μl of plasma, brain tissue and fibroblast samples from each mouse were mixed with an ASM activity buffer, and stored at 37° C. The hydrolysis reaction was completed by adding 114 μl of ethanol to the mixed solution, and then the mixed solution was centrifuged. 30 μl of the supernatant was transferred into a glass vial, and then 5 μl was applied to the UPLC system. The ASM concentration level was quantified in comparison with a bodipy (aminoacetaldehyde) combined with sphingomyelin and ceramide. The sphingomyelin and ceramide levels were extracted and quantified according to a known method, by extracting lipid from the sample, resuspending the dried lipid extract in 25 μl of 0.2% Igepal CA-630 (Sigma-Aldrich), and quantifying the concentration level of each lipid using the UPLC system. […] The animal test conducted was approved by the Kyungpook National University Institutional Animal Care and Use Committee (IACUC). Transgenic mouse line overexpressing APPswe (hAPP695swe) and PS1 (presenilin-1M146V) based on C57BL/6 mice (Charles River, UK) were used as Alzheimer's animal models [hereinafter, APP mice: mice overexpressing APPswe, PS1 mice: overexpressing presenilin-1M146V; GlaxoSmithKline]. […] The concentration level of ASM was measured as follows. Specifically, 3μ ? of mouse serum, brain tissue and fibroblast samples were mixed with ASM activity buffer and stored at 37° C. 114 μ ? of ethanol was added to terminate the hydrolysis reaction, followed by centrifugation. […] The ASM concentration levels were quantified by comparison with sphingomyelin and Bodipy (aminoacetaldehyde) conjugated with ceramide. The extraction and quantification of the sphingomyelin and ceramide was carried out by extracting and drying the lipids from the sample according to a known conventional method, and resuspending the dried lipid extract to 25 μl of 0.2% Igepal CA-630 (Sigma-Aldrich), and the concentration levels of each lipid were quantitated using the UPLC system. […] The concentration level of ASM was measured as follows. […]

Series [3] deals with β-amyloid. Nature of the series: β-amyloid deposition in brain tissue of APP/PS1 mice (thioflavin S, immunofluorescence, ELISA). Format: in vivo, mouse. As to conditions: cerebral cortex and hippocampus, AMI for four months, FIG. 25. How it is done: First, the cerebral cortex and hippocampus tissue of each mouse prepared in Example 1-1 were isolated, and then a tissue fragment was obtained and this was dyed with thioflavin S according to a conventional known method. The results are illustrated in FIG. 3 (cerebral cortex) and FIG. 4 (hippocampus).
Also, immunofluorescence was performed according to a conventional known method using anti-20G10 (mouse, 1:1000) antibody against Aβ42, anti-G30 (rabbit, […]) antibody against Aβ40, anti-Iba-1 (rabbit, 1:500, Wako) antibody, anti-GFAP (rabbit, 1:500, DAKO) antibody and anti-active caspase3 (rabbit, 1:50, Chemicon) antibody. Tissue fragments were observed using a confocal laser scanning microscope equipped with Fluoview SV1000 imaging software (Olympus FV1000, Japan) or an Olympus BX51 microscope, and the percentage of the area of the dyed area with respect to the area of the entire tissue was quantified using Metamorph software (Molecular Devices).
Also, β-amyloid deposition was confirmed using commercially available ELISA kits (Biosource). More specifically, hemispheres of the brain of each mouse were homogenized in a buffer containing 0.02 M of guanidine. Thereafter, ELISA was performed for Aβ40 and Aβ42 according to the manufacturer's instructions.
After fixing the cerebral and hippocampal tissues of the mice, 0.5% thioflavin S (Sigma-Aldrich), anti-20G10 antibodies (mouse, 1:1000) against Aβ42, anti-G30 antibodies (rabbit, […]) against Aβ40, anti-GFAP antibodies (rabbit, 1:500, DAKO), or anti-Iba-1 antibodies (rabbit, 1:500, Wako) were co-cultured. The tissues were analyzed using a laser scanning confocal microscope equipped with Fluoview SV1000 imaging software (Olympus FV1000, Japan) or an Olympus BX51 microscope. Percentage of stained area to total tissue area was quantified and analyzed using Metamorph software (Molecular Devices).
After fixing the mouse brain and hippocampus, 0.5% thioflavin S (Sigma-Aldrich), anti-GFAP (rabbit, 1:500, DAKO), and anti-Iba-1 (rabbit, 1:500, WAKO) were co-cultured together. The regions were analyzed using a laser scanning confocal microscope equipped with Fluoview SV1000 imaging software (Olympus FV1000, Japan) or an Olympus BX51 microscope. Percentage of stained area to total tissue area was quantified and analyzed using Metamorph software (Molecular Devices).
Proteins were extracted from mouse brain and hippocampus, and the amounts of Abeta40 (KHB3481, Invitrogen) and Abeta42 (KHB3441, Invitrogen) were measured using ELISA.

Series [4] has as its system human fibroblast. Kind of series: Autophagy (LC3-I to LC3-II conversion) in human fibroblast treated with recombinant ASM, M6P or NH4Cl. Type of series: cell-based. How it is done: Human fibroblast acquired from the Coriell Institute, and was cultured in DMEM medium containing 15% FBS at 37° C. and 5% of CO2. The cell lines were treated with recombinant ASM (1 μM to 10 μM), and then Western blotting and densitometric quantification were performed in the same manner as Example 2-1. The results are illustrated in FIG. 17 and FIG. 18.
In order to confirm how ASM affects autophagy, a test was conducted as follows. Human fibroblast was treated with ASM alone, or treated with ASM in the presence of mannose-6-phosphate (M6P; 10 mM) relating to the action of placing lysosomal enzyme protein in lysosome, and then the accumulation of autophagosome was confirmed using Western blotting and densitometric quantification. The results are illustrated in FIG. 19.
In order to confirm whether ASM increases the formation rate of autophagosome, or decreases the degradation rate of autophagosome, autophagic flux assay was performed. […] The results are illustrated in FIG. 20.
Also, when treating with NH4Cl or ASM after culturing fibroblast of human with Alzheimer's disease in a serum-free medium or complete medium, the conversion rate from LC3-I to LC3-II was measured using Western blotting. The results are illustrated in FIG. 21 and FIG. 22.

Setting [5] is: human fibroblast treated with ASM in the presence of M6P 10 mM, FIG. 19.
The mark [6] stands for this setting: human fibroblast, recombinant ASM 1 μM to 10 μM, FIG. 17, 18.

Turning to `CN(C)CCC=C1c2ccccc2CCc2ccccc21` [AMI, amitriptyline-hydrochloride, reference compound], the “ability to remember (escape latency, MWM)” value in series [1] is on record as “recovered by decrease in escape latency”. For the same molecule, in series [2], the “ASM in brain tissue” value is reported as “decreased” and the ASM in serum result is “decreased”. The “deposition of β-amyloid” value in series [3] is recorded as “inhibited”.
On to `O=C[C@@H](O)[C@@H](O)[C@H](O)[C@H](O)COP(=O)(O)O` [M6P, mannose-6-phosphate, reference compound], for which, in series [4] (setting [5]), the “accumulation of ASM-induced autophagosome” value was “decreased” and the “conversion to LC3-II” value is given as “decreased”.
`Cl.N` [NH4Cl, reference compound]: the LC3-II level entry in series [4] (fibroblast of human with Alzheimer's disease, serum-free medium (autophagy induced), NH4Cl added, FIG. 21) was “increased significantly”.

B1: recombinant ASM: recombinant acid sphingomyelinase protein used to treat human fibroblast (protein)
chain: LALSDSRVLWAPAEAHPLSPQGHPARLHRIVPRLRDVFGWGNLTCPICKGLFTAINLGLKKEPNVARVGSVAIKLCNLLKIAPPAVCQSIVHLFEDDMVEVWRRSVLSPSEACGLLLGSTCGHWDIFSSWNISLPTVPKPPPKPPSPPAPGAPVSRILFLTDLHWDHDYLEGTDPDCADPLCCRRGSGLPPASRPGAGYWGEYSKCDLPLRTLESLLSGLGPAGPFDMVYWTGDIPAHDVWHQTRQDQLRALTTVTALVRKFLGPVPVYPAVGNHESTPVNSFPPPFIEGNHSSRWLYEAMAKAWEPWLPAEALRTLRIGGFYALSPYPGLRLISLNMNFCSRENFWLLINSTDPAGQLQWLVGELQAAEDRGDKVHIIGHIPPGHCLKSWSWNYYRIVARYENTLAAQFFGHTHVDEFEVFYDEETLSRPLAVAFLAPSATTYIGLNPGYRVYQIDGNYSGSSHVVLDHETYILNLTQANIPGAIPHWQLLYRARETYGLPNTLPTAWHNLVYRMRGDMQLFQTFWFLYHKGHPPSEPCGTPCRLATLCAQLSARADSPALCRHLMPDGSLPEAQSLWPRPLFC
Regarding B1, the “amount of LC3-II (autophagic flux assay)” value in series [4] (cells treated with ASM and NH4Cl, FIG. 20) is “no significant change”. Besides, the “accumulation of LC3-II” value in series [4] (fibroblast of human with Alzheimer's disease, serum-free medium (autophagy induced), treated with ASM, FIG. 22) is reported as “increased significantly”. Also, in series [4] (setting [6]), the “conversion from LC3-I to LC3-II” value was “takes place depending on the concentration” and the “expression of beclin-1” value is “no significant change”.

(Values after patent US12545745B2, “Method for treating a degenerative neurological disorders comprising administering ASM inhibitor” (KYUNGPOOK NATIONAL UNIVERSITY INDUSTRY-ACADEMIC COOPERATION …, priority 2013, dated 2026).)
